# Laboratory results reported in patent US7973047B2, “Beta-Secretase modulators and methods of use” (Amgen Inc., priority 2010, dated 2011).
# Where two headings read alike, the source gives them in different places.
# Test system: Aβ40 in conditioned medium of cells stably expressing Amyloid Precursor Protein (APP)
# Test: BACE cell-based assay: Aβ40 in conditioned medium by sandwich ELISA
# Conditions: unit inferred, read-out: Cell Assay
# Summary of the method: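 APP-stable cells grown 24 h in DMEM/10% FBS, then exposed to compounds for 24 h in a 10-point dose series starting at 100 or 10 μM, 0.1% DMSO final. Medium Aβ40 measured by pAb40/biotinylated 6E10 sandwich ELISA with Europium time-resolved fluorescence; IC50 from percent inhibition.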
# [1] = cell based assay data of Table 4
Molecule,"IC50 (cell based assay data, Table 4) [nM]",IC50 [1] [nM]
CC(=O)N[C@@H](Cc1ccccc1)[C@H](O)CN[C@H]1CC2(CCC2)Oc2c1cc(CC(C)(C)C)nc2N1CCOCC1 [compound 754],52.2,
CC(=O)N[C@@H](Cc1cc(F)cc(F)c1)[C@H](O)CN[C@H]1CC2(CCC2)Oc2ncc([C@H](F)C(C)(C)C)cc21 [compound 681],,3.46
CC(=O)N[C@@H](Cc1c(F)cccc1F)[C@H](O)CN[C@H]1CC2(CCC2)Oc2ncc(CC(C)(C)C)cc21 [compound 826],6.93,
CC(=O)N[C@@H](Cc1cc(F)cc(F)c1)[C@H](O)CN[C@H]1CC2(CCC2)Oc2c1cc(Cl)cc2-n1ccnc1 [compound 773],21.9,
"CC(=O)N[C@@H](Cc1cc(F)cc(F)c1)[C@H](O)CN[C@H]1CC2(CCC2)Oc2ncc(C(F)(F)F)cc21 [compound 700, N-((1S,2R)-1-((3,5-difluorophenyl)methyl)-2-hydroxy-3-(((4′S)-6′-(trifluoromethyl)-3′,4′-dihydrospiro[cyclobutane-1,2′-pyrano[2,3-b]pyridin]-4′-yl)amino)propyl)acetamide]",,1200
CC(=O)N[C@@H](Cc1ccc(Cl)cc1)[C@H](O)CN[C@H]1CC2(CCC2)Oc2nc(F)c(CC(C)(C)C)cc21 [compound 667],,385
CC(=O)N[C@@H](Cc1ccc(Cl)c(C(F)(F)F)c1)[C@H](O)CN[C@H]1CC2(CCC2)Oc2ncc(CC(C)(C)C)cc21 [compound 716],23.3,
CC(=O)N[C@@H](Cc1ccc(Cl)cc1)[C@H](O)CN[C@H]1CC2(CCC2)Oc2ncc(C(F)C(C)C(F)(F)F)cc21 (stereo partly shown) [compound 860],452,
CC(=O)N[C@@H](Cc1ccc(F)c(N(C)C)c1)[C@H](O)CN[C@H]1CC2(CCC2)Oc2ncc(CC(C)(C)C)cc21 [compound 709],,8.01
CC(=O)N[C@@H](Cc1cc(F)cc(F)c1)[C@H](O)CN[C@H]1CC2(CCC2)Oc2c1cc(Cl)cc2-n1cccn1 [compound 776],124,
CC(=O)N[C@@H](Cc1ccc(F)c(F)c1)[C@H](O)CN[C@H]1CC2(CCC2)Oc2ncc(CC(C)C)cc21 [compound 851],3.24,
CC(=O)N[C@@H](Cc1ccccc1)[C@H](O)CN[C@H]1CC2(CCC2)Oc2ncc([C@H](F)C(C)(C)C)cc21 [compound 679],,6.04
CC(=O)N[C@@H](Cc1ccc(F)cc1)[C@H](O)CN[C@H]1C[C@@]2(CC[C@@H]2C)Oc2ncc(CC(C)(C)C)cc21 [compound 625],,≥ 10000
"CC(=O)N[C@@H](Cc1ccccc1)[C@H](O)CN[C@H]1CC(C)(C)Cc2sc(CC(C)(C)C)cc21 [compound 654, N-((1S,2R)-3-(((4S)-2-(2,2-dimethylpropyl)-6,6-dimethyl-4,5,6,7-tetrahydro-1-benzothien-4-yl)amino)-2-hydroxy-1-(phenylmethyl)propyl)acetamide]",,13.8
"CC(=O)N[C@@H](CCC(F)(F)F)[C@H](O)CN[C@H]1CC2(CCC2)Oc2ncc(CC(C)(C)C)cc21 [compound 738, N-((1S)-1-((1R)-2-(((4′S)-6′-(2,2-dimethylpropyl)-3′,4′-dihydrospiro[cyclobutane-1,2′-pyrano[2,3-b]pyridin]-4′-yl)amino)-1-hydroxyethyl)-4,4,4-trifluorobutyl)acetamide]",1420,

# Next, values leading:
"IC50 (cell based assay data, Table 4) [nM]",IC50 [1] [nM],Molecule
12.1,,CCc1cnc2c(c1)[C@@H](NC[C@@H](O)[C@H](Cc1cc(F)cc(F)c1)NC(C)=O)CC1(CCC1)O2 [compound 874]
31,,CC(=O)N[C@@H](Cc1cccc(F)c1F)[C@H](O)CN[C@H]1CC2(CCC2)Oc2ncc(CC(C)(C)F)cc21 [compound 833]
,37.2,CCCc1cnc2c(c1)[C@@H](NC[C@@H](O)[C@H](Cc1ccc(F)cc1)NC(C)=O)CC1(CCC1)O2 [compound 694]
,30,CC(=O)N[C@@H](Cc1ccn(C)c(=O)c1)[C@H](O)CN[C@H]1CC2(CCC2)Oc2ncc(CC(C)(C)C)cc21 [compound 649]
,72.8,"N-((1S,2R)-3-(((4R)-6-(2,2-dimethylpropyl)-2,2-dimethyl-1,2,3,4-tetrahydro-4-quinolinyl)amino)-2-hydroxy-1-(phenylmethyl)propyl)acetamide N-((1S,2R)-3-(((4S)-6-(2,2-dimethylpropyl)-2,2-dimethyl-1,2,3,4-tetrahydro-4-quinolinyl)amino)-2-hydroxy-1-(phenymethyl)propyl)acetamide [compound 689]"
,32.6,CC(=O)N[C@@H](Cc1ccc(F)cc1)[C@H](O)CN[C@H]1C[C@]2(CC[C@@H]2C)Oc2ncc(CC(C)(C)C)cc21 [compound 619]
52,,CC(=O)N[C@@H](Cc1ccccc1)[C@H](O)CN[C@H]1CC2(CCC2)Oc2nc(F)c(CC(C)C)cc21 [compound 852]
,31.8,CC(=O)N[C@@H](Cc1ccccc1)[C@H](O)CN[C@H]1CC2(CCC2)Oc2c1cc(CC(C)(C)C)nc2N(C)C [compound 582]
26.4,,CC(=O)N[C@@H](Cc1cccc(F)c1)[C@H](O)CN[C@H]1CC2(CCC2)Oc2ncc(C(F)C(C)C(F)(F)F)cc21 (stereo partly shown) [compound 861]
,4.43,CC(=O)N[C@@H](Cc1cccc(F)c1)[C@H](O)CN[C@H]1CC2(CCC2)Oc2c1cc(CC(C)(C)C)nc2NCCN [compound 606]
190,,CC(=O)N[C@@H](Cc1ccccc1)[C@H](O)CN[C@H]1CC2(CCC2)Oc2ccc(-c3ccn(CC(C)C)n3)cc21 [compound 779]
38.8,,CC(=O)N[C@@H](Cc1cc(F)cc(Cl)c1)[C@H](O)CN[C@H]1CC2(CCC2)Oc2cnc(CC(C)(C)O)cc21 [compound 751]
,1430,CC(=O)N[C@@H](Cc1cccc(F)c1)[C@H](O)CN[C@H]1CC2(CCC2)Oc2ncc([C@@H](F)C(C)C)cc21 [compound 555]
,≥ 10000,CC(=O)N[C@@H](Cc1ccc(Cl)cc1)[C@H](O)CN[C@H]1C[C@@]2(CC[C@@H]2C)Oc2ncc(CC(C)(C)C)cc21 [compound 626]
,94.7,CC(=O)N[C@@H](Cc1ccc(F)cc1)[C@H](O)CN[C@H]1CC2(CCC2)Oc2nc(F)c(CC(C)(C)C)cc21 [compound 662]
298,,"C/C=C/C[C@H](NC(C)=O)[C@H](O)CN[C@H]1CC2(CCC2)Oc2ncc(CC(C)(C)C)cc21 [compound 739, N-((1S,3E)-1-((1R)-2-(((4′S)-6′-(2,2-dimethylpropyl)-3′,4′-dihydrospiro[cyclobutane-1,2′-pyrano[2,3-b]pyridin]-4′-yl)amino)-1-hydroxyethyl)-3-penten-1-yl)acetamide]"
,5.16,"CC(=O)N[C@@H](Cc1ccnc(OCC(F)(F)F)c1)[C@H](O)CN[C@H]1CC2(CCC2)Oc2ncc(CC(C)(C)C)cc21 [compound 645, N-((1S,2R)-3-(((4′S)-6′-(2,2-dimethylpropyl)-3′,4′-dihydrospiro[cyclobutane-1,2′-pyrano[2,3-b]pyridin]-4′-yl)amino)-2-hydroxy-1-((2-((2,2,2-trifluoroethyl)oxy)-4-pyridinyl)methyl)propyl)acetamide]"
1370,,CC(=O)N[C@@H](Cc1cc(F)cc(F)c1)[C@@H](O)CN[C@H]1CC2(CCC2)Oc2c1cc(Cl)cc2-n1cccn1 [compound 786]
15.5,,"CC(=O)N[C@@H](Cc1ccc(F)c(Cl)c1)[C@H](O)CN[C@H]1C[C@]2(C[C@H](C)C2)Oc2ncc(CC(C)(C)C)cc21 [compound 713, N-((1S,2R)-1-((3-chloro-4-fluorophenyl)methyl)-3-(((1s,3R,4′S)-6′-(2,2-dimethylpropyl)-3-methyl-3′,4′-dihydrospiro[cyclobutane-1,2′-pyrano[2,3-b]pyridin]-4′-yl)amino)-2-hydroxypropyl)acetamide]"
